From US20220362122A1, “Hair Treatment Compositions With Amine Derivatives” (ELC Management LLC, priority 2021, published 2022)
Entries after “also recorded” stand apart in the source; their conditions may differ. Read-outs that look alike come from different tables or passages of the source. Marks after values point to notes of the source that are not given here.

Tests used:
[1] = alkalizer composition; 22° C., T-F spindle, 6 rpm
[2] = alkalizer composition
[3] = for Lifting level normalized to NH3•H2O / Relative lifting level in percentage (LVirgin-LAlkalizer)/(LVirgin-LNaOH) / ΔL (change in color lifting) LVirgin-LAlkalizer: single alkalizer compositions, Table 5; for lifting of natural hair color, comparison in words: single alkalizer/oxidizer mixtures; for L Value: single alkalizer composition + volume 40 oxidizer developer on hair tresses, 37° C., 45 minutes, virgin 19
[4] = pH of alkalizer composition
outer root sheath cells = assay: MultiTox-Fluor Multiplex Cytotoxicity Assay, outer root sheath cells; format: cell-based; details: for IC50: greater IC50 = less stress on the cells, unit inferred; for toxicity to the cell, comparison in words: outer root sheath cells
Description: (§1) The effects of alkalizer compositions on outer root sheath cells and on keratinocytes was evaluated. The MultiTox-Fluor Multiplex Cytotoxicity Assay (Promega Corp., Madison, Wis.) simultaneously measures two protease activities: one is a marker of cell viability, and the other is a marker of cytotoxicity. In the assays, the responses of outer root sheath cells and keratinocytes to various concentrations of alkalizers were measured, and IC50, the concentration that provokes a mid-height response (midway between the baseline response and maximal response), was determined.

keratinocytes = assay: MultiTox-Fluor Multiplex Cytotoxicity Assay, keratinocytes; format: cell-based; details: for toxicity to the cell, comparison in words: keratinocytes; for IC50: Keratinocyte, greater IC50 = less stress on the cells, unit inferred
Description: as §1

[5] = Table 12 AEPD-Tris series, mole ratio AEPD/Tris, virgin hair 20.4
[6] = alkalizer composition: Table 2 base + alkalizer, same molar percentage
[7] = Table 13 Serinol-Tris series, mole ratio Serinol/Tris, virgin hair 20.4

Viscosity (cP × 10^5) [1] [cP × 10^5]	Alkalinity [2] [mL/g]	ΔT (change in denaturation temperature) TVirgin-TAlkalizer (keratin in hair)	pH [4]	pH [4, 6]	Compound	% Relative damage level compared to NaOH (TVirgin-TAlkalizer)/(TVirgin-TNaOH) (keratin in hair) [%]	Damage level normalized to NH3•H2O (keratin in hair)	Lifting level normalized to NH3•H2O [3]	Relative lifting level in percentage (LVirgin-LAlkalizer)/(LVirgin-LNaOH) [3] [%]	ΔL (change in color lifting) LVirgin-LAlkalizer [3]	lifting of natural hair color, comparison in words [3]	IC50 (outer root sheath cells) [mM]	toxicity to the cell, comparison in words (outer root sheath cells)	toxicity to the cell, comparison in words (keratinocytes)	hair damage / denaturation temperature, comparison in words (keratin in hair)	L Value [3]	other results
3.26	3.10	12	11.49	–	3-Amino-1-propanol [AP]	83.97	4.30	1.20	102.27	−18	better at lifting natural hair color than the ammonium hydroxide/oxidizer mixture; also recorded: outperformed all of them	–	–	–	–	–	Denaturation Temperature (° C.) (keratin in hair): 138.42 °C
4.47	2.40	4.17	–	10.33	CCC(N)(CO)CO [AEPD, 2-Amino-2-ethyl-1,3-propanediol]	29.18	1.49	0.73	62.50	−11	not quite as good as secondary amine alkalizer, DEA, but close	87	significantly less toxic than ammonium hydroxide	significantly less toxic than ammonium hydroxide	performed significantly better than MEA and AMP	30	denaturation temperature in binary combinations, in words (keratin in hair): lowered the denaturation temperature, but only slightly; L* value ([3]; Table 7 AEPD-NH3 series, mole ratio AEPD/NH3, virgin hair 20.2): 30; L* value [3, 5]: 30.4
1.81	2.32	8.59	–	10.91	CC(C)(N)CO [AMP, aminomethyl propanol, reference compound]	60.11	3.08	0.90	76.70	−13.5	–	–	more toxic to the cell than ammonium hydroxide	more toxic to the cell than ammonium hydroxide	–	32.5	–
3.84	2.49	4.54	10.28	–	CC(N)(CO)CO [AMPD, 2-Amino-2-methyl-1,3-propanediol]	–	1.63	0.87	–	−13	almost as good as MEA and ammonium hydroxide	–	significantly less toxic than ammonium hydroxide	significantly less toxic than ammonium hydroxide	–	–	–
5.09	2.57	1.79	10.35	–	OCCNCCO [DEA, Diethanolamine]	–	0.64	0.77	–	−11.5	–	–	–	–	less damaging to hair than the ammonium hydroxide composition	–	–
0.211	2.38	2.58	–	11.15	CN(C)C(C)(C)CO [DMAMP, 2-Dimethyl-amino-2-methyl-1-propanol]	18.05	0.92	0.47	39.77	−7	–	18	more toxic than ammonium hydroxide, but less toxic than conventional replacement AMP; also recorded: more toxic to the cell than ammonium hydroxide	more toxic than ammonium hydroxide, but less toxic than conventional replacement AMP; also recorded: less toxic to keratinocytes than MEA; also recorded: more toxic to the cell than ammonium hydroxide	less damaging to hair than the ammonium hydroxide composition	26	IC50 (keratinocytes): 33 mM; denaturation temperature in binary combinations, in words (keratin in hair): raised the denaturation temperature; L* value ([3]; Table 8A DMAMP-NH3 series, mole ratio DMAMP/NH3, virgin hair 20.3): 26; L* value ([3]; Table 8B DMAMP-NH3 in low DMAMP percentages, mole ratio DMAMP/NH3, virgin hair 20.3): 24.9
3.23	2.57	0.96	–	10.37	CN(C)CC(O)CO (stereo not drawn) [DMAPD, 3-(dimethylamino)-1,2-propanediol]	6.72	0.34	0.43	36.93	−6.5	–	–	significantly less toxic than ammonium hydroxide	significantly less toxic than ammonium hydroxide	less damaging to hair than the ammonium hydroxide composition	25.5	–
3.75	2.45	5.83	–	10.56	NCC(O)CO (stereo not drawn) [Isoserinol, 3-Amino-1,2-propanediol]	40.80	2.09	1.13	96.59	−17	significantly better than AMP and about the same as MEA, at lifting hair color; also recorded: better at lifting natural hair color than the ammonium hydroxide/oxidizer mixture; also recorded: about the same effectiveness as MEA, and significantly better effectiveness than AMP	56.3	significantly less toxic than ammonium hydroxide	significantly less toxic than ammonium hydroxide	performed significantly better than MEA and AMP	36	IC50 (keratinocytes): 97 mM
3.02	2.35	8.46	–	10.85	NCCO [MEA, monoethanolamine, reference compound]	–	3.03	–	–	−17	–	21.4	more toxic to the cell than ammonium hydroxide	more toxic to the cell than ammonium hydroxide	–	36	IC50 (keratinocytes): 23 mM
–	–	14.29	–	–	[Na+].[OH-] [NaOH, reference compound]	100	5.12	1.17	100	−17.6	–	–	–	–	–	36.6*	–
10.1	2.55	3.19	–	10.22	NC(CO)CO [Serinol, 2-Amino-1,3-propanediol]	22.32	1.14	0.80	68.18	−12	performed significantly less well than ammonium hydroxide	–	–	–	–	31	denaturation temperature in binary combinations, in words (keratin in hair): lowered the denaturation temperature, but only slightly; L* value ([3]; Table 10 Serinol-NH3 series, mole ratio Serinol/NH3, virgin hair 19.9): 31.2; L* value [3, 7]: 31.2
4.17	2.43	1.42	–	9.6	NC(CO)(CO)CO [Tris, Tromethamine]	–	0.51	0.53	–	−8	as good as tertiary alkalizer DMAP	–	–	–	also performed well	27	L* value ([3]; Table 9 Tris-NH3 series, mole ratio Tris/NH3, virgin hair 20.0): 28; L* value ([3]; Table 11 AMPD-Tris series, mole ratio AMPD/Tris, virgin hair 20.3): 28; L* value [3, 5]: 28.5; L* value [3, 7]: 28.5; L* value / color lifting in binary combinations, in words ([3]; binary combinations of alkalizers): tends to reduce the effectiveness of color lifting

Compound	Viscosity (cP × 10^5) [1] [cP × 10^5]	Alkalinity [2] [mL/g]	ΔT (change in denaturation temperature) TVirgin-TAlkalizer (keratin in hair)	pH [4]	pH [4, 6]	% Relative damage level compared to NaOH (TVirgin-TAlkalizer)/(TVirgin-TNaOH) (keratin in hair) [%]	Damage level normalized to NH3•H2O (keratin in hair)	Lifting level normalized to NH3•H2O [3]	Relative lifting level in percentage (LVirgin-LAlkalizer)/(LVirgin-LNaOH) [3] [%]	ΔL (change in color lifting) LVirgin-LAlkalizer [3]	lifting of natural hair color, comparison in words [3]	IC50 (outer root sheath cells) [mM]	toxicity to the cell, comparison in words (outer root sheath cells)	toxicity to the cell, comparison in words (keratinocytes)	hair damage / denaturation temperature, comparison in words (keratin in hair)	L Value [3]	other results
Ammonium hydroxide [reference compound]	–	–	2.79	10.72	–	–	1	–	–	–	–	–	–	–	–	–	–
